US8728771B2, “L-succinylaminoacylase and process for producing L-amino acid using it” (Toyo Boseki Kabushiki Kaisha, priority 2008, dated 2014)

Columns and labels:
[1] = tested on: L-succinylaminoacylase disclosed in Patent Document 3; test: Comparative experiment for enzymatic activity (ii), enzyme of Patent Document 3 (Example 7); format: biochemical, Geobacillus stearothermophilus NCA 1503 strain; settings: 4 hours, 50° C., pH 7.5, cobalt acetate
Description: (§1) Each of N-succinyl-DL-4-bromophenylalanine, N-succinyl-DL-biphenylalanine, N-succinyl-DL-3,4-dichlorophenylalanine, N-succinyl-DL-cyclohexylglycine, and N-succinyl-DL-tert-leucine synthesized in the above (3) was used to prepare an amino acid solution of 10% by weight (pH 7.5). Mixed solution of 0.25 ml of 0.1M HEPES-NaOH buffer (pH 7.5), 0.025 ml of 0.1M cobalt acetate solution, 0.5 ml of each amino acid solution and 4.2 ml of distilled water was prepared. To the resulting solution was added 0.025 ml of a solution of the L-succinylaminoacylase disclosed in Example 1 of Patent Document 3 made into 5 mg/ml or a solution of the L-succinylaminoacylase of the present invention prepared in the above Example 1 made into 5 mg/ml. The resulting reaction solution was subjected to a reaction for 4 hours with stirring at 50° C. After completion of the reaction, a sample was collected therefrom and subjected to an HPLC measurement under the same condition as in Example 2 to calculate the conversion rate into each of the L-amino acids corresponding to N-succinyl-DL-4-bromophenylalanine, N-succinyl-DL-biphenylalanine, N-succinyl-DL-3,4-dichlorophenylalanine, N-succinyl-DL-cyclohexylglycine, and N-succinyl-DL-tert-leucine.

[2] = tested on: L-succinylaminoacylase of the present invention; test: Comparative experiment for enzymatic activity (ii), enzyme of the present invention (Example 7); format: biochemical, Geobacillus stearothermophilus IFO 12983 strain; settings: 4 hours, 50° C., pH 7.5, cobalt acetate
Description: as §1

[3] = tested on: L-succinylaminoacylase of the present invention; test: Hydrolysis of N-succinyl-DL-amino acid to L-amino acid by L-succinylaminoacylase, HPLC (Examples 2 and 3); format: biochemical, Geobacillus stearothermophilus IFO 12983 strain; settings: for Yield (%) of corresponding L-amino acid: 10% by weight substrate, 96 hours, same condition as in Example 2 (57° C., 0.5 mM CoCl2)
Description: The N-succinyl-DL-tert-leucine synthesized in the above (1) was dissolved in distilled water and its pH was adjusted using 0.1N sodium hydroxide (manufactured by Nacalai tesque) to prepare a 5% by weight solution of N-succinyl-DL-tert-leucine (pH 7 to 8). […] This reaction solution was kept at 57° C. for 144 hours with stirring.
Column: Inertsil ODS-2 (particle size: 5 μm; 4.6 mm inner diameter×250 mm length) manufactured by GL Science
Eluant: aqueous solution of phosphate (pH 2.3)/acetonitrile for HPLC=80:20
Column temperature: 40° C.
The reaction was carried out for 96 hours under the same condition as in Example 2 using N-succinyl-DL-valine, N-succinyl-DL-phenylalanine, N-succinyl-DL-tryptophan, N-succinyl-DL-asparagine, N-succinyl-DL-serine, N-succinyl-DL-tyrosine, or N-succinyl-DL-cyclohexylglycine synthesized in the above (2) and (3) instead of N-succinyl-DL-tert-leucine. However, concentration of each N-succinyl-DL-amino acid was made 10% by weight. After completion of the reaction, a sample was collected therefrom and subjected an HPLC measurement under the same condition as in Example 2 to calculate the conversion rate into each L-amino acid corresponding to N-succinyl-DL-valine, N-succinyl-DL-phenylalanine, N-succinyl-DL-tryptophan, N-succinyl-DL-asparagine, N-succinyl-DL-serine, N-succinyl-DL-tyrosine, and N-succinyl-DL-cyclohexylglycine.

[4] = tested on: L-succinylaminoacylase of the present invention and N-succinylamino acid racemase; test: Synthesis of L-tert-leucine using L-succinylaminoacylase and N-succinylamino acid racemase (i) (Example 4); format: biochemical, Geobacillus stearothermophilus; settings: 1% by weight substrate, racemase prepared in (1) added, 90 hours; 100% is the theoretically highest yield
Description: The reaction was carried out for 90 hours under the same condition as in Example 2 except that the concentration of the N-succinyl-DL-tert-leucine solution was made 1% by weight and that 0.1 ml of a 9.6 mg/ml solution of N-succinylamino acid racemase prepared in the above (1) was previously added to the reaction solution. After completion of the reaction, the sample was collected therefrom and subjected to an HPLC measurement under the same condition as in Example 2 to calculate the yield of L-tert-leucine whereupon the yield was not lower than 90% and the value being nearly equal to 100% which is the theoretically highest yield was achieved.

[5] = tested on: L-succinylaminoacylase of the present invention and N-succinylamino acid racemase; test: Synthesis of L-tert-leucine using L-succinylaminoacylase and N-succinylamino acid racemase (ii) (Example 5); format: biochemical; settings: 1% by weight substrate, racemase prepared in (2) added, up to 120 hours
Description: The same reaction as in Example 4 was carried out for 120 hours except that the product prepared in the above (2) was used as an N-succinylamino acid racemase. The sample was collected after 24 hours, 48 hours and 120 hours from the start of the reaction and subjected to an HPLC measurement under the same condition as in Example 2 to confirm the synthesis of L-tert-leucine from N-succinyl-DL-tert-leucine.

[6] = tested on: L-succinylaminoacylase of the present invention; test: Comparative experiment for enzymatic activity (i), with racemase (Example 6); format: biochemical, Geobacillus stearothermophilus IFO 12983 strain; settings: 5% by weight substrate, racemase (2), 50° C., up to 144 hours, FIG. 3
Description: The N-succinyl-DL-tert-leucine synthesized in the above (1) was dissolved in distilled water and its pH was adjusted using 0.1N sodium hydroxide (manufactured by Nacalai tesque) to prepare a 5% by weight solution of N-succinyl-DL-tert-leucine (pH 7 to 8). To 10 ml of this solution were added 0.5 mM (final concentration) of CoCl2 and 0.1 ml of the N-succinylamino acid racemase in the above (2) prepared in 10 mg/ml. To the resulting solution was added 0.1 ml of the L-succinylaminoacylase disclosed in Example 1 of Patent Document 3 made into 2.5 mg/ml or a solution of the L-succinylaminoacylase of the present invention prepared in the above Example 1 and made into 2.5 mg/ml. The prepared reaction solution was kept at 50° C. for 144 hours with stirring. The sample was collected after 24 hours, 48 hours, 72 hours and 144 hours from the start of the reaction and subjected to an HPLC measurement to confirm the peaks of succinyl-form compound and free-form compound whereby the synthesis of L-tert-leucine from N-succinyl-DL-tert-leucine was confirmed.

[7] = Physical and chemical properties of the L-succinylaminoacylase (temperature stability, optimum temperature, optimum pH); format: physicochemical
Description: Physical and chemical properties of the L-succinylaminoacylase of the present invention are as shown in the following (i) to (v).
(iii) Temperature stability: When it is subjected to a heating treatment for 30 minutes, it is stable at 70° C. and is inactivated at 75° C. or higher;
(iv) Optimum temperature: When it is made to react at pH 7 to 8, its action is optimum at the temperature of 55 to 60° C.; and
(v) Optimum pH: When it is made to react at 60° C. for 30 minutes, its action is optimum at pH 7.

[8] = Metal ion dependence of L-succinylaminoacylase activity; format: biochemical
Source text: Examples of the divalent or univalent metal ion include Mn^2+, Co^2+, Mg^2+, Ca^2+, Ni^2+ and K^+ and, among them, Co^2+ is particularly preferred. It has been known that, when Co^2+ is used, the activity increased to an extent of twice or more as compared with the case where Zn^2+ is used.

[9] = heating treatment for 30 minutes

Molecule: O=C(O)CCC(=O)NC(Cc1ccc(Br)cc1)C(=O)O (racemic) [N-succinyl-DL-4-bromophenylalanine]
- Conversion rate by L-succinylaminoacylase of Patent Document 3 (%) [1]: 97.1%
- Conversion rate by L-succinylaminoacylase of the present invention (%) [2]: 97.5%

Molecule: NC(=O)CC(NC(=O)CCC(=O)O)C(=O)O (racemic) [N-succinyl-DL-asparagine]
- Yield (%) of corresponding L-amino acid [3]: 42.5%

Molecule: O=C(O)CCC(=O)NC(Cc1ccc(-c2ccccc2)cc1)C(=O)O (racemic) [N-succinyl-DL-biphenylalanine]
- Conversion rate by L-succinylaminoacylase of Patent Document 3 (%) [1]: 8.8%
- Conversion rate by L-succinylaminoacylase of the present invention (%) [2]: 74.1%

Molecule: O=C(O)CCC(=O)NC(C(=O)O)C1CCCCC1 (racemic) [N-succinyl-DL-cyclohexylglycine]
- Yield (%) of corresponding L-amino acid [3]: 49.2%
- Conversion rate by L-succinylaminoacylase of Patent Document 3 (%) [1]: 53.6%
- Conversion rate by L-succinylaminoacylase of the present invention (%) [2]: 97.3%

Molecule: O=C(O)CCC(=O)NC(Cc1ccc(Cl)c(Cl)c1)C(=O)O (racemic) [N-succinyl-DL-dichlorophenylalanine, N-succinyl-DL-3,4-dichlorophenylalanine]
- Conversion rate by L-succinylaminoacylase of Patent Document 3 (%) [1]: 82.0%
- Conversion rate by L-succinylaminoacylase of the present invention (%) [2]: 83.3%

Molecule: O=C(O)CCC(=O)NC(Cc1ccccc1)C(=O)O (racemic) [N-succinyl-DL-phenylalanine]
- Yield (%) of corresponding L-amino acid [3]: 37.5%

Molecule: O=C(O)CCC(=O)NC(CO)C(=O)O (racemic) [N-succinyl-DL-serine]
- Yield (%) of corresponding L-amino acid [3]: 43.4%

Molecule: CC(C)(C)C(NC(=O)CCC(=O)O)C(=O)O (racemic) [N-succinyl-DL-tert-leucine]
- Yield (conversion rate) of L-tert-leucine ([3]; 5% by weight substrate, 0.5 mM CoCl2, 57° C., pH 7 to 8, up to 144 hours, 50% is the theoretically highest yield): ~50%
- Yield of L-tert-leucine [4]: ≥ 90%
- Yield of L-tert-leucine [5]: ≥ 90%
- Conversion rate from N-succinyl-DL-tert-leucine to L-tert-leucine compared with enzyme of Patent Document 3 [6]: significantly high conversion rate
- Conversion rate by L-succinylaminoacylase of Patent Document 3 (%) [1]: 0.1%
- Conversion rate by L-succinylaminoacylase of the present invention (%) [2]: 45.7%

Molecule: O=C(O)CCC(=O)NC(Cc1c[nH]c2ccccc12)C(=O)O (racemic) [N-succinyl-DL-tryptophan]
- Yield (%) of corresponding L-amino acid [3]: 31.4%

Molecule: O=C(O)CCC(=O)NC(Cc1ccc(O)cc1)C(=O)O (racemic) [N-succinyl-DL-tyrosine]
- Yield (%) of corresponding L-amino acid [3]: 19.1%

Molecule: CC(C)C(NC(=O)CCC(=O)O)C(=O)O (racemic) [N-succinyl-DL-valine]
- Yield (%) of corresponding L-amino acid [3]: 42.4%

B1: L-succinylaminoacylase of the present invention: protein of amino acid sequence SEQ ID No: 2, L-succinylaminoacylase of IFO 12983 strain of Geobacillus stearothermophilus (protein, listed as Geobacillus stearothermophilus)
chain: MKEIIQQMKAELWSIFDYLHRHPEISWEEWGTTEFVRRELEREGYRVWTFADCPGVVAEIGDGPFMVGVRSDMDALWQEVNGVWQPNHACGHDAHMTIVLGVAKLLRRIGYEPPGTLRFLFQPAEEKGTGALKLIEKGAVDGMSFLYGVHLRPVQEVKSGYATPAIIHGAAQCIEGRIRGMAAHAARPHLGVNVIEVGSAIVQELGKIHVDPQVPATIKMTRFHAGEKDVNTIPDYAEFSLDLRAQTNEAMEQLVERLRRVVNGVAAIYGAEIELDERTRIVAANPDLDAKRLMEEAIIAVLGEEKCIPPVITSGGEDFHFYAFKKPELKTTMLGLGCDLRPGLHHPQMTFQRDDLLSGIEILARTVINTFALQGEKERVSIAANH
- Temperature stability: inactivated at [7, 9]: ≥ 75 °C
- Temperature stability: stable at [7, 9]: 70 °C
- Optimum pH ([7]; reaction at 60° C. for 30 minutes): 7
- Increase of activity with Co^2+ as compared with Zn^2+ [8]: twice or more
